The target in test [1] is T1, Glutaminase kidney isoform, mitochondrial (Homo sapiens) (UniProt O94925).
T1 sequence (whole entry): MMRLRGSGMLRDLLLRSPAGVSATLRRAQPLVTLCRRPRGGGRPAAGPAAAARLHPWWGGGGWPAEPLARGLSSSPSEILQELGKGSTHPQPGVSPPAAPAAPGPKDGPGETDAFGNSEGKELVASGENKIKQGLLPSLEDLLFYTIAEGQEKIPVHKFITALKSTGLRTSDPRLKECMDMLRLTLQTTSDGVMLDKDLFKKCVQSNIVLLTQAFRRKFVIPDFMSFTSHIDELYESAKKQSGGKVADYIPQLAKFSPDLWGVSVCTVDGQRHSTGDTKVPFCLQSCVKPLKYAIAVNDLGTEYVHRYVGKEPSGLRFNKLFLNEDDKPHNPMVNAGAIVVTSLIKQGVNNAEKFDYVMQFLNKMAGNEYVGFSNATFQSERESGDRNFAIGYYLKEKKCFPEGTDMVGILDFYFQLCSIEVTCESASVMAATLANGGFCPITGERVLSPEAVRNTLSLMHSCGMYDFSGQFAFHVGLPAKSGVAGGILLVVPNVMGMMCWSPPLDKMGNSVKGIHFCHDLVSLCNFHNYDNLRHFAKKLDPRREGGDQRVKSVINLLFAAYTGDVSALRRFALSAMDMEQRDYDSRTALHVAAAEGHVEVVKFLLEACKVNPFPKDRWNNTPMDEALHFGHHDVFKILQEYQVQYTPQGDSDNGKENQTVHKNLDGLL
Kind of test: Competitive binding affinity to human KGA in presence of BPTES by biolayer interferometry. (In general: BLI is a label-free optical method that tracks binding on a fibre tip over time.)

Test [2] deals with T1, Glutaminase kidney isoform, mitochondrial (Homo sapiens). Kind of test: Binding affinity to human KGA assessed as association rate constant at 33 uM.
The target is the same in test [3]. Kind of test: Competitive binding affinity to human KGA after 1 hr in presence of ebselen by biolayer interferometry.
The target of test [4] is T2, Glutaminase kidney isoform, mitochondrial (Homo sapiens, UniProt O94925).
T2 sequence (O94925 whole entry): T1 sequence (whole entry)
The experiment in a line: Allosteric inhibition of human KGA assessed as reduction in glutamate formation using glutamine as substrate pretreated with enzyme for 15 mins followed by substrate addition and measured after 3 hrs by KGA/GDH coupled assay.

Test [5] has as its target T2, Glutaminase kidney isoform, mitochondrial. The experiment in a line: Binding affinity to human KGA assessed as dissociation constant.
Test [6] has as its target T1, Glutaminase kidney isoform, mitochondrial (Homo sapiens). The experiment in a line: Binding affinity to human KGA assessed as dissociation rate constant at 33 uM.

Activity calls are given as the source filed them. No cut-off for these calls is given here.

For the compound `COc1ccc2[se]n(CCCCCCn3[se]c4ccc(OCCCCC[C@@H]5SC[C@@H]6NC(=O)N[C@@H]65)cc4c3=O)c(=O)c2c1`, the result in test [1] was Active. For the same compound, the Ka in test [2] amounted to 1.4 ×10⁴ /Ms. Besides, the outcome in test [3] was inactive. Further, in test [4], the IC50 (usually the midpoint of a concentration-inhibition curve) amounted to 73 nM. Further, the equilibrium dissociation constant (Kd) (usually the free concentration of one partner at which half of the binding sites on the other are occupied at equilibrium, for simple one-to-one binding) in test [5] amounted to 142 nM. For the same compound, in test [6], the Kdiss stood at 2 ×10⁻³ /s.

The values are drawn from ChEMBL document CHEMBL4346743, “Design and synthesis of biotinylated Hexylselen as a probe to identify KGA allosteric inhibitors by a convenient biomolecular interaction assay” (Bioorg Med Chem Lett, 2019).
